Entries after “also recorded” stand apart in the source; their conditions may differ.

For data set [1], the system named is primary cortical neuronal culture (PCN). The data set can be described thus: Glutamate neurotoxicity in primary cortical neuronal culture, MAP2 immunostaining. The following applies: Glu 100 µM.
The test system of a further data set is TBI mice. The data set can be described thus: Morris water maze test in a mouse model of traumatic brain injury (controlled cortical impact).
In another data set the target is T1, 5-HT1A (Homo sapiens, UniProt P08908).
T1 sequence (P08908 1-422): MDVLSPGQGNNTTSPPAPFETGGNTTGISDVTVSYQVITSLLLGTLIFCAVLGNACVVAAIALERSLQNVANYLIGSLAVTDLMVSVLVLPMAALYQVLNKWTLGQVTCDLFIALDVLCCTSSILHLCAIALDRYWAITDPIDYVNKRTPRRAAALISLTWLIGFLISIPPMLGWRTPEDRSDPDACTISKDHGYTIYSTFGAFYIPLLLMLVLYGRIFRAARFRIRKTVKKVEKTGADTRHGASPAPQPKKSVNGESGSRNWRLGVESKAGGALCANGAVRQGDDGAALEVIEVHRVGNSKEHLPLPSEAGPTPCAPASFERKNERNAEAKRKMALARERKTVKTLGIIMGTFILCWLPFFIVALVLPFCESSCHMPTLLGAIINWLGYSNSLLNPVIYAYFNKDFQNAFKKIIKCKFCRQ
The following applies: cited from earlier work.

The subject of a further data set is cluster headache (CH). Particulars: low-dose psilocybin; cited from earlier work.
The nature of data set [2]: Body weight of TBI mice on PID21. Format: in vivo, CD1 mice. The following applies: for body weight: measured on PID21.
The nature of data set [3]: Deaths during surgery or post-TBI drug treatment. Type of data set: in vivo, CD1 mice. The following applies: intranasal, day 4 to day 8 after CCI.
The target in a further data set is 5-HT2A receptor (Homo sapiens, UniProt P28223). Particulars: cited from earlier work.
[4] abbreviates: high dose Psilocybin, day 4 to day 8, PID 10, 14 and 21.

5-HT2A receptor, sequence (P28223 whole entry): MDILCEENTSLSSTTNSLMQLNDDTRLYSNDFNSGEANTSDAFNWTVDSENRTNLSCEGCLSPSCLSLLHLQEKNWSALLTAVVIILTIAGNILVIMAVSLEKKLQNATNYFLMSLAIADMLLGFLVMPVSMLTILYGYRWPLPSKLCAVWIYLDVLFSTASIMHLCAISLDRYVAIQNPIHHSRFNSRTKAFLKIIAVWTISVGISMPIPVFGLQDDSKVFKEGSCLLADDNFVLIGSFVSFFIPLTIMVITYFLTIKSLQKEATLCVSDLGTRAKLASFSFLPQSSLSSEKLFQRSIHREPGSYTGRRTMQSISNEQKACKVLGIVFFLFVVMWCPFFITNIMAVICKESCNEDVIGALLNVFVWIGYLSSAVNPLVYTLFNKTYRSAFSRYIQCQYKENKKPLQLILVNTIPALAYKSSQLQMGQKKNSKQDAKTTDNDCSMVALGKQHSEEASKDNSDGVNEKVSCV

`CN(C)CCc1c[nH]c2cccc(OP(=O)(O)O)c12` [Psilocybin, 4-phosphoryloxy-N,N-dimethyltryptamine]: the “Antagonism of glutamate-mediated reduction of MAP2 immunoreactivity (neuronal loss)” value in data set [1] (PSI 100 nM or 1 μM, n=5-6 per group) is “not significantly altered; also recorded: non-significant trend; also recorded: not significantly antagonized; also recorded: did not significantly alter”. The “No. of crossing (average number of platform crossings)” value with TBI mice (Psi-H (high dose), Day 3 (PID3, before drug treatment)) is 4.43 ± 0.69; in the data set with TBI mice (Psi-H (high dose, i.n. day 4 to day 8 after CCI), Day 10) it was 6.00 ± 0.85; in the data set on TBI mice (Psi-H (high dose, i.n. day 4 to day 8 after CCI), Day 14), 6.00 ± 0.44; in the data set on TBI mice (Psi-H (high dose, i.n. day 4 to day 8 after CCI), Day 21), 6.00 ± 0.66; with TBI mice (Psi-L (low dose), Day 3 (PID3, before drug treatment)), 3.57 ± 0.90; with TBI mice (Psi-L (low dose, i.n. day 4 to day 8 after CCI), Day 10), 4.14 ± 0.51. The “No. of crossing (average number of platform crossings)” value with TBI mice (Psi-L (low dose, i.n. day 4 to day 8 after CCI), Day 14) came out at 4.43 ± 0.61; with TBI mice (Psi-L (low dose, i.n. day 4 to day 8 after CCI), Day 21), 3.29 ± 0.57. Besides, the “Average number of platform crossings in TBI mice (in words)” value in the data set with TBI mice (setting [4]) is listed as “significantly increased”. Further, the “Time in the target area in TBI mice (in words)” value in the data set with TBI mice (setting [4]) was “significantly increased”. For the same compound, in the data set on TBI mice (i.n. starting 4 days after TBI for 5 days), the “Cognitive function in TBI mice (Morris water maze)” value is “significantly improved”. Further, the “Agonist activity at 5-HT1A” value on 5-HT1A is “moderate agonist”. For the same compound, the “Effect on cluster headache” value with cluster headache (CH) was “can prevent”. The “Body weight (in words)” value in data set [2] (PID21) is “did not significantly alter”. The body weight came out at 34.7 ± 0.87 g in data set [2] (Psi-H (high dose)) and 35.71 ± 0.68 g in data set [2] (Psi-L (low dose)). In addition, the “Animal deaths during post-TBI drug treatment” value in data set [3] was “No animal died”. For the same compound, the “Agonist activity at 5-HT2A receptor” value on 5-HT2A receptor is on record as “strong agonist”.
With `N[C@@H](CCC(=O)O)C(=O)O` [Glu, glutamate], the “Effect on MAP2 immunoreactivity (MAP2-ir) vs. vehicle” value in data set [1] (48 hrs) is “significantly reduced”.

The values are drawn from patent US20240277736A1, “USE OF PSILOCYBIN IN THE TREATMENT OF NEUROLOGICAL BRAIN INJURY AND MIGRAINES” (priority 2020, published 2024).
